In patent US7407973B2, “Use of pirfenidone in therapeutic regimens” (Intermune, Inc., priority 2003, dated 2008):

How the values were obtained:
other kinases tested = assay: Human kinase panel, overall conclusion: other kinases; type: biochemical
Protocol: (§1) Enzymatic activity of various human kinases was assayed in the presence and the absence of pirfenidone. Percent enzyme activity of various human enzymes in the presence of substrate and pirfenidone are shown in FIGS. 1-5, and in Table 2, below, where “percent enzyme activity” is the percent of the control activity (e.g., in the absence of pirfenidone): […]

SAPK = assay: Human kinase panel, overall conclusion: SAPK; type: biochemical
Protocol: as §1

## Cc1ccc(=O)n(-c2ccccc2)c1 [pirfenidone, 5-methyl-1-phenyl-2-(1H)-pyridone]
Other kinases tested
  Inhibition of other kinases tested (conclusion from Table 2 data): does not substantially inhibit
SAPK
  Inhibition of SAPK (conclusion from Table 2 data): is an inhibitor of SAPK
